From patent US12180187B2, “1-phenyl-5-azinylpyrazolyl-3-oxyalkyl acids and their use for controlling unwanted plant growth” (BAYER AKTIENGESELLSCHAFT, priority 2019, dated 2024)

Tests used:
LOLRI [1] = assay: Pre-emergence action against LOLRI, 1280 g/ha; type: in vivo, Lolium rigidum; settings: visual scoring after about 3 weeks vs untreated controls, 100% = plants have died, 0% = like control plants
Procedure, shortened: (§1)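 Activity was scored visually as percent versus untreated controls about 3 weeks after treatment (100% = dead plants, 0% = control-like). Compounds, formulated as wettable powders or emulsion concentrates, were sprayed onto the covering soil over freshly sown seeds in sandy loam, with 0.5% additive and 600 L/ha water.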

KCHSC [2] = assay: Pre-emergence action against KCHSC, 1280 g/ha; type: in vivo, Bassia scoparia; settings: scored visually after about 3 weeks vs untreated controls (100% = plants have died)
Procedure, shortened: as §1

MATIN [3] = assay: Pre-emergence action against MATIN, 1280 g/ha; type: in vivo, Tripleurospermum inodorum (Matricaria inodora); settings: scored visually after about 3 weeks vs untreated controls (100% = plants have died)
Procedure, shortened: as §1

LOLRI [4] = assay: Pre-emergence action at 320 g/ha against LOLRI; type: in vivo, Lolium rigidum; settings: visual scoring after about 3 weeks vs untreated controls
Procedure, shortened: (§2)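 Sow seeds, cover with soil, spray soil surface (WP/EC, 0.5% additive, 600 l/ha water), hold in greenhouse ~3 wk, then rate % activity visually against untreated controls.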

LOLRI [5] = assay: Post-emergence action against LOLRI, 1.28 kg/ha; type: in vivo, Lolium rigidum; settings: dosage 1280 g/ha, visual rating about 3 weeks after treatment vs untreated controls
Procedure, shortened: (§3)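 Foliar application at the one-leaf stage: compound as WP or EC in water with 0.5% additive, sprayed at 600 L/ha. Plants are kept about 3 weeks in the greenhouse, then % herbicidal action is estimated visually (100% = death).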

DIGSA [6] = assay: Pre-emergence action against DIGSA, 1280 g/ha; type: in vivo, Digitaria sanguinalis; settings: visual scoring after about 3 weeks vs untreated controls, 100% = plants have died, 0% = like control plants
Procedure, shortened: as §1

VIOTR = assay: Pre-emergence action at 320 g/ha against VIOTR; type: in vivo, Viola tricolor; settings: dosage 320 g/ha
Procedure, shortened: as §2

ALOMY [7] = assay: Pre-emergence action at 320 g/ha against ALOMY; type: in vivo, Alopecurus myosuroides; settings: scored visually after about 3 weeks vs untreated controls (100% = plants have died)
Procedure, shortened: as §2

DIGSA [8] = assay: Post-emergence action against DIGSA, 1.28 kg/ha; type: in vivo, Digitaria sanguinalis; settings: dosage 1280 g/ha, visual rating about 3 weeks after treatment vs untreated controls
Procedure, shortened: as §3

POAAN [9] = assay: Post-emergence action against POAAN, 1.28 kg/ha; type: in vivo, Poa annua; settings: dosage 1280 g/ha, visual rating about 3 weeks after treatment vs untreated controls
Procedure, shortened: as §3

ALOMY [10] = assay: Pre-emergence action against ALOMY, 1280 g/ha; type: in vivo, Alopecurus myosuroides; settings: visual scoring after about 3 weeks vs untreated controls, 100% = plants have died, 0% = like control plants
Procedure, shortened: as §1

ECHGC = assay: Pre-emergence action at 320 g/ha against ECHGC; type: in vivo, Echinochloa crus-galli; settings: visual scoring after about 3 weeks vs untreated controls
Procedure, shortened: as §2

DIGSA [11] = assay: Pre-emergence action at 320 g/ha against DIGSA; type: in vivo, Digitaria sanguinalis; settings: visual scoring after about 3 weeks vs untreated controls
Procedure, shortened: as §2

STEME [12] = assay: Post-emergence action against STEME, 1.28 kg/ha; type: in vivo, Stellaria media; settings: dosage 1280 g/ha, visual rating about 3 weeks after treatment vs untreated controls (100% = plants died)
Procedure, shortened: as §3

STEME [13] = assay: Pre-emergence action against STEME, 1280 g/ha; type: in vivo, Stellaria media; settings: scored visually after about 3 weeks vs untreated controls (100% = plants have died)
Procedure, shortened: as §1

VERPE [14] = assay: Pre-emergence action at 320 g/ha against VERPE; type: in vivo, Veronica persica; settings: visual scoring after about 3 weeks vs untreated controls
Procedure, shortened: as §2

VERPE [15] = assay: Pre-emergence action against VERPE, 1280 g/ha; type: in vivo, Veronica persica; settings: scored visually after about 3 weeks vs untreated controls (100% = plants have died)
Procedure, shortened: as §1

AMARE [16] = assay: Post-emergence action against AMARE, 1.28 kg/ha; type: in vivo, Amaranthus retroflexus; settings: dosage 1280 g/ha, visual rating about 3 weeks after treatment vs untreated controls (100% = plants died)
Procedure, shortened: as §3

ECHCG [17] = assay: Pre-emergence action against ECHCG, 1280 g/ha; type: in vivo, Echinochloa crus-galli; settings: visual scoring after about 3 weeks vs untreated controls, 100% = plants have died, 0% = like control plants
Procedure, shortened: as §1

AMARE [18] = assay: Pre-emergence action at 320 g/ha against AMARE; type: in vivo, Amaranthus retroflexus; settings: visual scoring after about 3 weeks vs untreated controls
Procedure, shortened: as §2

SETVI [19] = assay: Pre-emergence action against SETVI, 1280 g/ha; type: in vivo, Setaria viridis; settings: visual scoring after about 3 weeks vs untreated controls, 100% = plants have died, 0% = like control plants
Procedure, shortened: as §1

MATIN [20] = assay: Pre-emergence action at 320 g/ha against MATIN; type: in vivo, Tripleurospermum inodorum (Matricaria inodora); settings: visual scoring after about 3 weeks vs untreated controls
Procedure, shortened: as §2

ABUTH [21] = assay: Post-emergence action against ABUTH, 1.28 kg/ha; type: in vivo, Abutilon theophrasti; settings: dosage 1280 g/ha, visual rating about 3 weeks after treatment vs untreated controls (100% = plants died)
Procedure, shortened: as §3

POLCO = assay: Pre-emergence action at 320 g/ha against POLCO; type: in vivo, Fallopia convolvulus (Polygonum convolvulus); settings: visual scoring after about 3 weeks vs untreated controls
Procedure, shortened: as §2

SETVI [22] = assay: Post-emergence action against SETVI, 1.28 kg/ha; type: in vivo, Setaria viridis; settings: dosage 1280 g/ha, visual rating about 3 weeks after treatment vs untreated controls
Procedure, shortened: as §3

POAAN [23] = assay: Pre-emergence action against POAAN, 1280 g/ha; type: in vivo, Poa annua; settings: visual scoring after about 3 weeks vs untreated controls, 100% = plants have died, 0% = like control plants
Procedure, shortened: as §1

PHBPU = assay: Pre-emergence action at 320 g/ha against PHBPU; type: in vivo; settings: visual scoring after about 3 weeks vs untreated controls
From the text: b) Seeds of monocotyledonous and dicotyledonous weed plants and crop plants are placed in plastic or organic planting pots and covered with soil. The compounds of the invention, formulated in the form of wettable powders (WP) or as emulsion concentrates (EC), are then applied onto the surface of the covering soil as aqueous suspension or emulsion with addition of 0.5% additive at a water application rate of 600 l/ha (converted). After the treatment, the pots are placed in a greenhouse and kept under good growth conditions for the trial plants. After about 3 weeks, the effect of the preparations is scored visually in comparison with untreated controls as percentages. For example, 100% activity=the plants have died, 0% activity=like control plants. Tables 13 to 26 below show the effects of selected compounds of the general formula (I) on various harmful plants and at an application rate corresponding to 320 g/ha, which were obtained by the experimental procedure mentioned above.

ECHCG [24] = assay: Post-emergence action against ECHCG, 1.28 kg/ha; type: in vivo, Echinochloa crus-galli; settings: dosage 1280 g/ha, visual rating about 3 weeks after treatment vs untreated controls
Procedure, shortened: as §3

ABUTH [25] = assay: Pre-emergence action against ABUTH, 1280 g/ha; type: in vivo, Abutilon theophrasti; settings: scored visually after about 3 weeks vs untreated controls (100% = plants have died)
Procedure, shortened: as §1

AMARE [26] = assay: Pre-emergence action against AMARE, 1280 g/ha; type: in vivo, Amaranthus retroflexus; settings: scored visually after about 3 weeks vs untreated controls (100% = plants have died)
Procedure, shortened: as §1

SETVI [27] = assay: Pre-emergence action at 320 g/ha against SETVI; type: in vivo, Setaria viridis; settings: visual scoring after about 3 weeks vs untreated controls
Procedure, shortened: as §2

VERPE [28] = assay: Post-emergence action against VERPE, 1.28 kg/ha; type: in vivo, Veronica persica; settings: dosage 1280 g/ha, visual rating about 3 weeks after treatment vs untreated controls (100% = plants died)
Procedure, shortened: as §3

AVEFA = assay: Pre-emergence action at 320 g/ha against AVEFA; type: in vivo; settings: visual scoring after about 3 weeks vs untreated controls
Procedure, shortened: as §2

ALOMY [29] = assay: Post-emergence action against ALOMY, 1.28 kg/ha; type: in vivo, Alopecurus myosuroides; settings: dosage 1280 g/ha, visual rating about 3 weeks after treatment vs untreated controls
Procedure, shortened: as §3

MATIN [30] = assay: Post-emergence action against MATIN, 1.28 kg/ha; type: in vivo, Tripleurospermum inodorum (Matricaria inodora); settings: dosage 1280 g/ha, visual rating about 3 weeks after treatment vs untreated controls (100% = plants died)
Procedure, shortened: as §3

KCHSC [31] = assay: Post-emergence action against KCHSC, 1.28 kg/ha; type: in vivo, Bassia scoparia; settings: dosage 1280 g/ha, visual rating about 3 weeks after treatment vs untreated controls (100% = plants died)
Procedure, shortened: as §3

Row | Compound | Pre-emergence action against LOLRI (LOLRI [1]) [%] | Pre-emergence action against KCHSC (KCHSC [2]) [%] | Pre-emergence action against MATIN (MATIN [3]) [%] | Pre-emergence action against LOLRI in % (LOLRI [4]) [%] | Post-emergence action against LOLRI (LOLRI [5]) [%] | Pre-emergence action against DIGSA (DIGSA [6]) [%] | Pre-emergence action against VIOTR in % (VIOTR) [%] | Pre-emergence action at 320 g/ha against ALOMY in % (ALOMY [7]) [%] | Post-emergence action against DIGSA (DIGSA [8]) [%] | Post-emergence action against POAAN (POAAN [9]) [%] | Pre-emergence action against ALOMY (ALOMY [10]) [%] | Pre-emergence action against ECHGC in % (ECHGC) [%] | Pre-emergence action against DIGSA in % (DIGSA [11]) [%] | Post-emergence action against STEME (STEME [12]) [%] | Pre-emergence action against STEME (STEME [13]) [%] | Pre-emergence action against VERPE in % (VERPE [14]) [%] | Pre-emergence action against VERPE (VERPE [15]) [%] | Post-emergence action against AMARE (AMARE [16]) [%] | Pre-emergence action against ECHCG (ECHCG [17]) [%] | Pre-emergence action against AMARE in % (AMARE [18]) [%] | other results
1 | N#CCCOC(=O)COc1nn(-c2ccccc2F)c(-c2ccc(F)nc2)c1Br [VII-110] | 100 | 90 | 100 | 100 | 100 | 100 | 100 | 100 | 100 | 100 | 100 | 100 | 100 | 100 | 100 | 100 | 100 | 90 | 100 | 100 | Pre-emergence action against SETVI (SETVI [19]): 100%; Pre-emergence action against MATIN in % (MATIN [20]): 100%; Post-emergence action against ABUTH (ABUTH [21]): 90%; Pre-emergence action against POLCO in % (POLCO): 100%; Post-emergence action against SETVI (SETVI [22]): 90%; Pre-emergence action against POAAN (POAAN [23]): 100%; Pre-emergence action against PHBPU in % (PHBPU): 90%; Post-emergence action against ECHCG (ECHCG [24]): 100%; Pre-emergence action against ABUTH (ABUTH [25]): 90%; Pre-emergence action against AMARE (AMARE [26]): 100%; Pre-emergence action against SETVI in % (SETVI [27]): 100%; Post-emergence action against VERPE (VERPE [28]): 100%; Pre-emergence action against AVEFA in % (AVEFA): 80%; Post-emergence action against ALOMY (ALOMY [29]): 100%; Post-emergence action against MATIN (MATIN [30]): 100%
2 | CSCCOC(=O)COc1nn(-c2ccccc2F)c(-c2ccc(F)nc2)c1Br [VII-124] | 100 | 90 | 100 | 100 | 100 | 100 | 100 | 100 | 100 | 100 | 100 | 100 | 100 | 100 | 100 | 100 | 100 | 90 | 100 | 100 | Post-emergence action against KCHSC (KCHSC [31]): 90%; Pre-emergence action against SETVI (SETVI [19]): 100%; Pre-emergence action against MATIN in % (MATIN [20]): 100%; Post-emergence action against ABUTH (ABUTH [21]): 90%; Pre-emergence action against POLCO in % (POLCO): 100%; Post-emergence action against SETVI (SETVI [22]): 90%; Pre-emergence action against POAAN (POAAN [23]): 100%; Pre-emergence action against PHBPU in % (PHBPU): 90%; Post-emergence action against ECHCG (ECHCG [24]): 100%; Pre-emergence action against ABUTH (ABUTH [25]): 90%; Pre-emergence action against AMARE (AMARE [26]): 100%; Pre-emergence action against SETVI in % (SETVI [27]): 100%; Post-emergence action against VERPE (VERPE [28]): 100%; Pre-emergence action against AVEFA in % (AVEFA): 90%; Post-emergence action against ALOMY (ALOMY [29]): 100%; Post-emergence action against MATIN (MATIN [30]): 100%
